The test system of one series is PDPN in A875 cells. Kind of series: Immunofluorescence binding/co-localization with PDPN, A875. The series is classed as cell-based. Conditions: 5 μM, 10 h, 37 ℃. On the procedure:
Immunofluorescence analysis was used for antigen localization and quantification. For PDPN immunofluorescence staining, melanoma cells (A375, A875) were seeded in coverslips, cultured for 24 h, and fixed using 4% paraformaldehyde for 15 min at room temperature (RT). The cells were then permeabilized with 0.2% Triton X-100 in PBS for 10 min. Cells were blocked using 1% bovine serum albumin (BSA) in PBS for 30 min at RT, and incubated with the primary antibody overnight at 4 ℃. Afterwards, cells were washed three times with PBS containing 0.01% Triton X-100 for 5 min, and incubated with Alexa Fluor 568–conjugated secondary antibodies at RT for 1 h. Lastly, the nuclei were dyed with 4’,6-diamidino-2-phenylindole (DAPI) for 5 min at RT, and the slides were imaged using a NIKON laser scanning confocal microscope. To further verify the specificity binding ability of CY12-RP2 with PDPN, immunofluorescence was detected for analysis in melanoma cells. Briefly, A375 or A875 cells were incubated with CY12-RP2 at a concentration of 5 μM for 10 h at 37 ℃, and then washed with DMEM to remove the unbound peptide. The anti-PDPN primary antibody was then incubated for 4 h at RT. Further experimental procedures were performed as described above. […]

The test system of series [1] is B16F10-Luc melanoma allograft. Format: in vivo, BALB/c mice; murine melanoma cell line. Conditions: 100 mg/kg, tail vein, every other day for 15 days. As for the experimental part: Tumorigenesis assays were conducted in vivo using BALB/c nude mice and BALB/c mice from Guangdong Medical Laboratory Animal Center. The animal study was reviewed and approved by the Administrative Committee on Animal Research of Shenzhen International Graduate School, Tsinghua University (Ethical Development No. 16, 10 November 2021). Samples with 5 × 10^5 A375 or B16F10-Luc melanoma cells were diluted in 100 μL PBS and injected subcutaneously into 6- to 8-week-old female BALB/c nude mice or BALB/c mice. 5 days later, the mice were treated with CY12-RP2 by tail vein administration at various doses (25 mg/kg and 100 mg/kg) every two days. The tumor volume and body weight were measured every 2 days, with the calculation of the tumor volume under the assumption of an ellipsoidal tumor as: tumor volume = length × width^2/2. Tumors from BALB/c nude mice were collected and photographed on day 21, while tumors from the allograft mouse model were measured using bioluminescence imaging. The blood collected from the eyes of BALB/c nude mice were stored at 4 °C for 24 h and then centrifuged for 15 min under the indicated conditions (4 °C, 3000 rpm). The supernatant was collected and assayed for drug toxicity using kits, including AST, ALT, TG, and γ-GT. […]

Series [2] relates to A375 cell spheroids (caspase3). Kind of series: Caspase3 immunofluorescence in 3D spheroids. The series is classed as cell-based. To be noted: 3D melanoma cell spheroids (A375 in Fig. S3G legend), 72 h. As for the experimental part:
Prepared melanoma cells spheroids were plated in 48-well plates. Following incubation for 3 days, the spheroids were exposed to different concentrations (0, 50, 100 and 200 μM) of CY12-RP2, and changes in spheroid diameter were detected after 5 days of treatment. Additionally, melanoma cell spheroids were treated with various concentrations of CY12-RP2 as described previously, and after 72 h, the spheroids were stained for immunofluorescence with caspase 3 primary antibody. The specific experimental procedures refer to the following immunofluorescence analysis. Additionally, we co-cultured peptide-stimulated PBMC with spheroids to determine the tumor-killing ability of activated PBMC.
Transwell assays were performed to quantify the modulatory effects of SKL2001 and IWR1 (C). Statistical analysis was performed to evaluate the invasion of cells (D). The power field scale bar, 100 μm. (E) Western blot assays were also performed on EMT-related proteins to identify the effects of SKL2001 and IWR1. […]
(A) Cell viability of melanoma cell lines (A375, A875) treated with 6 peptides except CY12-RP2 at various concentrations for 48 h. […] (C) SPR assay was performed to quantify […]
melanoma cell lines (A375, A875). […] (G) Immunofluorescence staining was performed to measure the caspase3 fluorescence intensity of A375 cell spheroids after treating with CY12-RP2. […]

The test system of series [3] is liver, heart, spleen, lung and kidney. To be noted: mouse, in vivo. On the procedure:
For histopathological analysis, after BALB/c nude mice were sacrificed, organs (heart, liver, spleen, lung, and kidney) were collected and fixed in 4% paraformaldehyde for 24 h at RT. The fixed organs were then dehydrated and inserted in paraffin, and prepared in 2 µm sections. The prepared sections and experimental procedures were routinely carried out by Servicebio company.

Molecules are shown by their SMILES. Peptide text beside a SMILES is read from it.

Regarding `CC(C)C[C@H](NC(=O)[C@H](Cc1ccc(O)cc1)NC(=O)[C@@H](N)[C@@H](C)O)C(=O)N[C@@H](CS)C(=O)N[C@H](C(=O)N[C@@H](C)C(=O)N[C@@H](CS)C(=O)N[C@@H](CC(=O)O)C(=O)N[C@@H](Cc1ccc(O)cc1)C(=O)N[C@H](C(=O)N[C@@H](Cc1c[nH]cn1)C(=O)N[C@@H](Cc1c[nH]cn1)C(=O)O)[C@@H](C)O)[C@@H](C)O` [CY12-RP2] (H-TYLCTACDYTHH-OH; N-terminus and C-terminus assumed), in the series on PDPN in A875 cells, the “fluorescence and co-localization with PDPN” value is on record as “minimal fluorescence”. In addition, the tumor volume result in series [1] is listed as “noticeably decreased”. For the same compound, the “tumor growth (bioluminescence imaging)” value in series [1] (vs control) was “significantly decreased tumor growth”. The “level of Caspase3” value in series [2] is listed as “significantly increased”. Moreover, the “toxic effect on organs (overall)” value in series [3] is “slightly toxic effect”.

For the origin of these results see article PMC10759609, “A novel PDPN antagonist peptide CY12-RP2 inhibits melanoma growth via Wnt/β-catenin and modulates the immune cells” (Journal of Experimental & Clinical Cancer Research : CR, 2024).
